Experimental data taken from ChEMBL document CHEMBL5465560, “Selectivity Literature for EUbOPEN Chemogenomic Library” (2024).

Tests used:
Misshapen-like kinase 1 [1] = biological target: T1, Misshapen-like kinase 1 (Homo sapiens, UniProt Q8N4C8); assay: Selectivity interaction (KinomeScan (DiscoverX)) EUB0001049a MINK1; conditions: at 1 µM
[2] = biological target: Receptor-interacting serine/threonine-protein kinase 2 (Homo sapiens, UniProt O43353); assay: Selectivity interaction (Competition-binding assay (DiscoverX)) EUB0000229b RIPK2
[3] = biological target: Leucine-rich repeat serine/threonine-protein kinase 2 (Homo sapiens, UniProt Q5S007); assay: Selectivity interaction (ActivX KiNativ screen (kinase selectivity in THP-1 cell lysates)) EUB0000639a LRRK2; format: subcellular; conditions: lysate
Chain of Leucine-rich repeat serine/threonine-protein kinase 2 (Q5S007 whole entry): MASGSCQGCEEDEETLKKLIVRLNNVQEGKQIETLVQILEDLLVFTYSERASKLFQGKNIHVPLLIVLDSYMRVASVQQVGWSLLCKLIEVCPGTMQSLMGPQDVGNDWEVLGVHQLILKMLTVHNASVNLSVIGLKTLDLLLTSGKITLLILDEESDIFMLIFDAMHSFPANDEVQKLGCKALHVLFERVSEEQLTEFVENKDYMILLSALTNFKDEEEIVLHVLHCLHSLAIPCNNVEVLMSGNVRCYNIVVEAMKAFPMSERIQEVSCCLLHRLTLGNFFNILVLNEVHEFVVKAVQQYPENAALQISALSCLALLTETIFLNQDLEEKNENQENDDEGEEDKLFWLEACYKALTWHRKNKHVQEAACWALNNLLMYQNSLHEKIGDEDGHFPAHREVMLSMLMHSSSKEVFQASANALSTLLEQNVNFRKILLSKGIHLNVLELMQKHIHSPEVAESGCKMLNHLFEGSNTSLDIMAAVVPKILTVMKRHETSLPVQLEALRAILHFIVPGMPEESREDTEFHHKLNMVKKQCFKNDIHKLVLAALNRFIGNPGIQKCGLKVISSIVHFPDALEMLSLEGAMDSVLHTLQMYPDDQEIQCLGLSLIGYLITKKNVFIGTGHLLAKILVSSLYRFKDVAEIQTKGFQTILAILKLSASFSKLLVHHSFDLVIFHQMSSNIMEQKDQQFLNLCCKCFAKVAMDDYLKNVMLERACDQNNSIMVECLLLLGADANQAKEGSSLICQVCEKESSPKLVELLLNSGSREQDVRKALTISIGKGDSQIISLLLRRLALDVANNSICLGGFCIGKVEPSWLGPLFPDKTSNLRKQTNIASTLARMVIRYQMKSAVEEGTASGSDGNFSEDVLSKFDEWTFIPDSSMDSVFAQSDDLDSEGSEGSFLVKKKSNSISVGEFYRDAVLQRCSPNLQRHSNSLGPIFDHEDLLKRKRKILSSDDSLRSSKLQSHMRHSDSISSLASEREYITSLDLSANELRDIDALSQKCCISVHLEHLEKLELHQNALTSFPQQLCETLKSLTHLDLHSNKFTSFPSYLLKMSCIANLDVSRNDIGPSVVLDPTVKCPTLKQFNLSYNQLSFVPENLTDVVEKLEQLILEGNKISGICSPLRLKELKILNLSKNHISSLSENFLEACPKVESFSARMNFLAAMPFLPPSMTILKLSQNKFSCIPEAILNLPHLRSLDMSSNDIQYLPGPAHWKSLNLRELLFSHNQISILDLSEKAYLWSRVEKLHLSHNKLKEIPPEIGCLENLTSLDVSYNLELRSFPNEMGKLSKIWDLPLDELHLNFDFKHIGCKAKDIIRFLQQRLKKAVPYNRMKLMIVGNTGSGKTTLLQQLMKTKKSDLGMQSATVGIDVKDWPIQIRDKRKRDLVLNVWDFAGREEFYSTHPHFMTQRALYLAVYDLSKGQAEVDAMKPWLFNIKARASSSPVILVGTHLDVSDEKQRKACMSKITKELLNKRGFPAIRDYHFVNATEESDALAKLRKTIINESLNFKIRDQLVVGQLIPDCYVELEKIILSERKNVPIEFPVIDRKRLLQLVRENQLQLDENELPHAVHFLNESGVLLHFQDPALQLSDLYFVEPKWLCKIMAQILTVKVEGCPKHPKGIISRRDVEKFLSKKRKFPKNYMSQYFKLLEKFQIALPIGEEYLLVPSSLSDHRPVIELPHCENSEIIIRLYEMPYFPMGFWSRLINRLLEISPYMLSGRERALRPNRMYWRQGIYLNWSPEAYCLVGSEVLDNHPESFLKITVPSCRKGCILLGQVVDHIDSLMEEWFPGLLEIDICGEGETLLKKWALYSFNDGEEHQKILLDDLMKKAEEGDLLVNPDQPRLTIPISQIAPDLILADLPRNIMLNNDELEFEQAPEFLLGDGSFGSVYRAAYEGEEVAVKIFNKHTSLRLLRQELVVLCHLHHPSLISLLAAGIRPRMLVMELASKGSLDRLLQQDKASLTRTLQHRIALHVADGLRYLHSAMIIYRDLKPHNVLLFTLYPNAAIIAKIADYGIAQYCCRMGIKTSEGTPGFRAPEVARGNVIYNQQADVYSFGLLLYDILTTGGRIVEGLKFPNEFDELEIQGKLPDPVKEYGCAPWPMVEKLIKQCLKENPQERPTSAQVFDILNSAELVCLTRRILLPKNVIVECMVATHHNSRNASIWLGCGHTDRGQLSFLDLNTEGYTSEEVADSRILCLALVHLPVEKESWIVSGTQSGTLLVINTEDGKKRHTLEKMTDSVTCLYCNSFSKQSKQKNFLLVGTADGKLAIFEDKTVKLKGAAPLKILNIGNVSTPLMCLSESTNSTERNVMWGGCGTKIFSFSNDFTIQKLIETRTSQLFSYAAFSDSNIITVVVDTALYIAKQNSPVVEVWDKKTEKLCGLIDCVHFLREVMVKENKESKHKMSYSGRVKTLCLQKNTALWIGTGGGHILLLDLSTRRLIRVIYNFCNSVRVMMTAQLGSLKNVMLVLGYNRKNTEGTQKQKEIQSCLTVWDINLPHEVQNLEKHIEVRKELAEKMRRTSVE

[4] = biological target: Glycogen synthase kinase-3 alpha (Homo sapiens, UniProt P49840); assay: Selectivity interaction (KinomeScan (DiscoverX)) EUB0000595a GSK3A; conditions: at 10 µM
[5] = biological target: T2, Serine/threonine-protein kinase TBK1 (Homo sapiens) (UniProt Q9UHD2); assay: Selectivity interaction (KinomeScan (DiscoverX)) EUB0000595a TBK1; conditions: at 10 µM
T2 sequence (whole entry): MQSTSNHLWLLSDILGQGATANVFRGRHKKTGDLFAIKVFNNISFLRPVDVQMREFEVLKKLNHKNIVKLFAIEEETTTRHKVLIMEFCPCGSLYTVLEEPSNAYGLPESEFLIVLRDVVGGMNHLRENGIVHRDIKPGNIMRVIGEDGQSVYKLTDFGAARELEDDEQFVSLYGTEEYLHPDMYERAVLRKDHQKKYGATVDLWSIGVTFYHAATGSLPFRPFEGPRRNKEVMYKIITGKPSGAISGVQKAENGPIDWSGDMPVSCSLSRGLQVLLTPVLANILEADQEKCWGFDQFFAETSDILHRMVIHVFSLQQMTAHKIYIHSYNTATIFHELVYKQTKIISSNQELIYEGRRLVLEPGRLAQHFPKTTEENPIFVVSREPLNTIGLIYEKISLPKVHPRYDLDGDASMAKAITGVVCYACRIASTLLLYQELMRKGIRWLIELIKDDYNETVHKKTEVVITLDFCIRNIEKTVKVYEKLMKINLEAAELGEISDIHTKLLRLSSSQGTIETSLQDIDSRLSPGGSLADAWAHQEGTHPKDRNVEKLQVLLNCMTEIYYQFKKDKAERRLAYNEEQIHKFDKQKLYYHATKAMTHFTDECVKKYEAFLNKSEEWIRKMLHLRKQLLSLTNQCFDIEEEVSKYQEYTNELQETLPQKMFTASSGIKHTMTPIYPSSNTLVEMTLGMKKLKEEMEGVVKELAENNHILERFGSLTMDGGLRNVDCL

[6] = biological target: Mitogen-activated protein kinase kinase kinase kinase 4 (Homo sapiens, UniProt O95819); assay: Selectivity interaction (KinomeScan (DiscoverX)) EUB0000045b MAP4K4
Chain of Mitogen-activated protein kinase kinase kinase kinase 4 (O95819 2-1239 limits assumed): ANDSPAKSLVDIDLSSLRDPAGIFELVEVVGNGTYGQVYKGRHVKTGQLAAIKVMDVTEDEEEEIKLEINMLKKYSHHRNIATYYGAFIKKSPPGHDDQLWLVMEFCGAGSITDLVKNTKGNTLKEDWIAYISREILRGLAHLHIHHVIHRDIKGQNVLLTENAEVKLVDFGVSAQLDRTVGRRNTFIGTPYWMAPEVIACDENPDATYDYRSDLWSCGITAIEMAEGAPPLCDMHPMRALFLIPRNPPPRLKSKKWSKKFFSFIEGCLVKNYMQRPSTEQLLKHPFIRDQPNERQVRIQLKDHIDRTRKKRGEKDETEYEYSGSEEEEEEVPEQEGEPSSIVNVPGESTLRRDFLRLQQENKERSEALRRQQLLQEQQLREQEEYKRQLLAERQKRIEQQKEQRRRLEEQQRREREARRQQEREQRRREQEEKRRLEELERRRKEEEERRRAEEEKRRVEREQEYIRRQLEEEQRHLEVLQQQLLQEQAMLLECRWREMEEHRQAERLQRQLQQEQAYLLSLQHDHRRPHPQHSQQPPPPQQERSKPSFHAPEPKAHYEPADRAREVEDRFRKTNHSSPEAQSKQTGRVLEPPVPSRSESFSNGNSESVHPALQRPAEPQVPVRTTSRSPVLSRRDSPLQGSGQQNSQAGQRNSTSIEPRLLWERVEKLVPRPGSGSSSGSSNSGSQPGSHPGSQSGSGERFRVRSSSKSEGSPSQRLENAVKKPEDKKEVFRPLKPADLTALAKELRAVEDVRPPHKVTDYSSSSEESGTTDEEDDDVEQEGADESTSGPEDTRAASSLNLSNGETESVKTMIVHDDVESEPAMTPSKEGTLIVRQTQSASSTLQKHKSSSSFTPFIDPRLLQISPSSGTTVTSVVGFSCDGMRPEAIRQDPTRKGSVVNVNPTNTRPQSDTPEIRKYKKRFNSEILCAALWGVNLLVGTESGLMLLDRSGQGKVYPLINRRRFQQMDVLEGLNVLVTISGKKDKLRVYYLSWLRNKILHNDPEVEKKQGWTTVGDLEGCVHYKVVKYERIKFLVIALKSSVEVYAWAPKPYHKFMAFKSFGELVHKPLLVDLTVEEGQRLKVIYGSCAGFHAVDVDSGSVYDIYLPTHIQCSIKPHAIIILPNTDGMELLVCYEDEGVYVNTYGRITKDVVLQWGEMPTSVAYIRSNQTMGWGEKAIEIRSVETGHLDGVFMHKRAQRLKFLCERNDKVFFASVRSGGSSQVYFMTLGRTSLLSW

[7] = biological target: Cyclin-dependent kinase 13 (Homo sapiens, UniProt Q14004); assay: Selectivity interaction (KinomeScan (DiscoverX)) EUB0000618a CDK13; conditions: at 10 µM
[8] = biological target: Cyclin-dependent kinase 18 (Homo sapiens) (UniProt Q07002); assay: Selectivity interaction (KinomeScan (DiscoverX)) EUB0000618a CDK18; conditions: at 10 µM
[9] = biological target: T3, Rhodopsin kinase GRK7 (Homo sapiens) (UniProt Q8WTQ7); conditions: at 10 µM
T3 sequence (whole entry): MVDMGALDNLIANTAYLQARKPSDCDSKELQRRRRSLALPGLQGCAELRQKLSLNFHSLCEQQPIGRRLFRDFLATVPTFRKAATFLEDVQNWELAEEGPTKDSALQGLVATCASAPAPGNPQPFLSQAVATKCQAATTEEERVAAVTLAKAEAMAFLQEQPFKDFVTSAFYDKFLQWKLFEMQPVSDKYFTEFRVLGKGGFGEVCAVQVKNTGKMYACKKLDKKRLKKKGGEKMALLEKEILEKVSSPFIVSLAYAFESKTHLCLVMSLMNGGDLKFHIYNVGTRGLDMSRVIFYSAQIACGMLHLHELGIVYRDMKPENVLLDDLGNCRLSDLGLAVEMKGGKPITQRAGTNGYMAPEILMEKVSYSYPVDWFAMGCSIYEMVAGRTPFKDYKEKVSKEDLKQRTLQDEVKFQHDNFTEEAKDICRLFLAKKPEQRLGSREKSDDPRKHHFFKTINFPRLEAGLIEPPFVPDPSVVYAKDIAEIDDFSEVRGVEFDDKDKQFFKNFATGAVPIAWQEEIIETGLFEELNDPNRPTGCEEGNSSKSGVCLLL

[10] = biological target: Mitogen-activated protein kinase kinase kinase 4 (Homo sapiens) (UniProt Q9Y6R4); conditions: at 10 µM
[11] = biological target: Receptor tyrosine-protein kinase erbB-4 (Homo sapiens, UniProt Q15303); assay: Selectivity interaction (KinomeScan (DiscoverX)) EUB0001619a ERBB4; conditions: at 1 µM
Misshapen-like kinase 1 [12] = biological target: T1, Misshapen-like kinase 1; assay: Selectivity interaction (KinomeScan (DiscoverX)) EUB0001619a MINK1; conditions: at 1 µM
[13] = biological target: Tyrosine-protein kinase JAK1 (Homo sapiens, UniProt P23458); assay: Selectivity interaction (KinomeScan (DiscoverX)) EUB0000655a JAK1; conditions: at 10 µM
[14] = biological target: Serine/threonine-protein kinase 16 (Homo sapiens, UniProt O75716); assay: Selectivity interaction (KinomeScan (DiscoverX)) EUB0000695a STK16; conditions: at 100 nM
[15] = biological target: Homeodomain-interacting protein kinase 2 (Homo sapiens, UniProt Q9H2X6); assay: Selectivity interaction (KinomeScan (DiscoverX)) EUB0000607a HIPK2; conditions: at 10 µM
[16] = biological target: T4, Dual specificity tyrosine-phosphorylation-regulated kinase 3 (Homo sapiens) (UniProt O43781); assay: Selectivity interaction (ProQinase) EUB0000171b DYRK3
T4 sequence (whole entry): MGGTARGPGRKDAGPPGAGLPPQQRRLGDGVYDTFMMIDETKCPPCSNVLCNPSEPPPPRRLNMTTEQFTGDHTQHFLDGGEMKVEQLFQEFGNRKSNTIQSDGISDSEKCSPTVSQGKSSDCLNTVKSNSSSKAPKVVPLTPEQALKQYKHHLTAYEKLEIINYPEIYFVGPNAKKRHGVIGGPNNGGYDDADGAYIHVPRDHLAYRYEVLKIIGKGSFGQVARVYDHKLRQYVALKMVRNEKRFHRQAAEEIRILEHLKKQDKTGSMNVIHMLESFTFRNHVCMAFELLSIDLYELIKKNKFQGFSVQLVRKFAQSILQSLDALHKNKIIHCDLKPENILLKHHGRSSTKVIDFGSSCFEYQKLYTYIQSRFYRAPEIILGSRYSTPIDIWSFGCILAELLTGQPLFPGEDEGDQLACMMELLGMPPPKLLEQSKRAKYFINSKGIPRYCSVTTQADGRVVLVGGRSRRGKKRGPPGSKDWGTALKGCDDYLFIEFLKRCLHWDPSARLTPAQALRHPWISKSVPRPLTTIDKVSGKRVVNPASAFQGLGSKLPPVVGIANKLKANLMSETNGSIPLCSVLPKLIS

T1 sequence (Q8N4C8 whole entry, looked up): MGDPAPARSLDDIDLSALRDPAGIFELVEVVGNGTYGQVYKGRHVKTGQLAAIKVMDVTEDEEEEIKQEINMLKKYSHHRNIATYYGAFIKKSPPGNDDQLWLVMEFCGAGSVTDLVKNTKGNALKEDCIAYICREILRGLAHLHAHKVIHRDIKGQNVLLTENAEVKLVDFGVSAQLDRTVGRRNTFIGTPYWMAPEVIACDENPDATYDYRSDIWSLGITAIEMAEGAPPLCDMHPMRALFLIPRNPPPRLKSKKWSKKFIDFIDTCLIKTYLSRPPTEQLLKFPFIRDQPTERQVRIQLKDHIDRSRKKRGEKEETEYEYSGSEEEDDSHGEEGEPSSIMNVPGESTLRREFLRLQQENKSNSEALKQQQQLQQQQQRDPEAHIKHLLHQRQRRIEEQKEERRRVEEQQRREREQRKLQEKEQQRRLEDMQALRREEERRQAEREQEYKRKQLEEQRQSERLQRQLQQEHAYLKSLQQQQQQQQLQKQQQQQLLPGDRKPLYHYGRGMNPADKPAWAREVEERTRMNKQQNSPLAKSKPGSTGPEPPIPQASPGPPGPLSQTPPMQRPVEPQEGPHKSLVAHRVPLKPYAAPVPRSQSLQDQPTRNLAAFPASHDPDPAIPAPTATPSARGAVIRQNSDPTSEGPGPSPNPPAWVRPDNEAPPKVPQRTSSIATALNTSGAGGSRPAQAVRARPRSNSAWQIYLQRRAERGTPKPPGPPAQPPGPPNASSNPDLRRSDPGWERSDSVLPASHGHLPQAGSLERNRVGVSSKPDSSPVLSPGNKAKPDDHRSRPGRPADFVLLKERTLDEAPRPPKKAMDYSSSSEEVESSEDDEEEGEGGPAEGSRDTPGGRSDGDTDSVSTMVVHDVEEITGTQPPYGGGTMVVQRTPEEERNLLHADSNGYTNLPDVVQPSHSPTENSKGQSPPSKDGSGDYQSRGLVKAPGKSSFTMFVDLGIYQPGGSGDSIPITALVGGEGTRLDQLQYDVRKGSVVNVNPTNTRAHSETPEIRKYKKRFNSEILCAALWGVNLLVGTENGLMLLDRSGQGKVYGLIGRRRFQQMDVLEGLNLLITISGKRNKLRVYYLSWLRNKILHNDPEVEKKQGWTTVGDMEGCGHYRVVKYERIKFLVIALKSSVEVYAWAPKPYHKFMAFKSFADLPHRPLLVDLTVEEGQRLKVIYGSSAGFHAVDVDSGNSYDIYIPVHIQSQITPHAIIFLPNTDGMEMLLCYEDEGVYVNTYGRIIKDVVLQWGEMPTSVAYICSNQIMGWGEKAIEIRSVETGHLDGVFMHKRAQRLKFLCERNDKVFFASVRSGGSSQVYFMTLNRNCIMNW

COc1cc(Nc2nc(C)cc(-c3cnn4nc(OC)ccc34)n2)cc(C(F)(F)F)c1
% of control (Misshapen-like kinase 1 [1]): 79%

COc1cc(N(C)c2ccnc3ccc(C(F)(F)F)cc23)cc(OC)c1OC
Kd [2]: 4.9 µM

CC[C@@H]1[C@H](F)C(=O)N[C@@H]1COc1nccc2cc(C(N)=O)c(OC)cc12 [ZIMLOVISERTIB]
% of inhibition ([3]; at 0.01 µM): 18.4% | % of inhibition ([3]; at 0.04 µM): 1.9% | % of inhibition ([3]; at 0.2 µM): 22.9% | % of inhibition ([3]; at 1 µM): 70.9% | % of inhibition ([3]; at 5 µM): 78%

COCC(=O)NC/C=C/c1ccc2ncnc(Nc3ccc(Oc4ccc(C)nc4)c(C)c3)c2c1 [CP-724714]
% of control [4]: 100% | % of control [5]: 90%

C=CC(=O)Nc1cc(-n2c(=O)ccc3cnc4ccc(-c5ccc(NS(C)(=O)=O)cc5)cc4c32)ccc1C
% of control ([6]; at 1 µM): 100% | % of control ([6]; at 10 µM): 100%

O[C@H]1CC[C@H](Nc2ncc3nc(Nc4c(F)cc(F)cc4F)n([C@H]4CCOC4)c3n2)CC1
% of control [7]: 90% | % of control [8]: 100%

Cc1cc([C@@H](C)Nc2ccccc2C(=O)O)c2nc(N3CCOCC3)cc(=O)n2c1 [AZD-6482]
% of control [9]: 57% | % of control [10]: 100%

N#Cc1cccc(-c2c[nH]c3ncnc(N4CCOCC4)c23)c1
% of control [11]: 100% | % of control (Misshapen-like kinase 1 [12]): 46%

CN(C)CCOc1ccc(-c2nc(-c3ccncc3)c(-c3ccc4c(c3)CC/C4=N\O)[nH]2)cc1
% of control [13]: 0.5%

Cc1cc(F)c(C(=O)Nc2cccc(-c3nncn3C(C)C)n2)cc1-n1cnc(C2CC2)c1
% of control [14]: 83%

CNC(=O)Nc1ccc(-c2nc(N3CC4CCC(C3)O4)c3cnn(C4CCC5(CC4)OCCO5)c3n2)cc1
% of control [15]: 100%

C=CC(=O)Nc1cccc(C(=O)Nc2ccc(Nc3cc(-c4[nH]c(SC)nc4C)ccn3)cc2)c1
% of control ([16]; at 1 µM): 82% | % of control ([16]; at 5 µM): 39%
